Where two headings read alike, the source gives them in different places.
Legend:
mouse [1] = experiment: Analgesic effect, thermal stimulation of the tail of the mouse; format: in vivo; conditions: oral, 25% retardation, read-out: Retardation of the defense reaction upon thermal stimulation of the tail of the mouse by 25%
From the text: The analgesic effect was thereby determined as the delay in the reaction upon thermal stimulation of the tail of the mouse.

mouse [2] = experiment: SD50, sedation symptoms, mouse; format: in vivo
From the text: b = Dose, at which at an average 50% of the mice show the following symptoms: inhibition of the spontaneous motility, sadation, muscle relaxation, loss of gripping and holding ability on a horizontal wire net.

mouse [3] = experiment: PD50, rotating rod, mouse; format: in vivo; conditions: ip, read-out: PD50
From the text: The centrally inhibiting effect of the piperazinyl uracils of the invention in the mouse are apparent from Table IV. […] The selective action of the compounds of the invention on the central blood pressure mechanism can be used advantageously in human therapy in the treatment of hypertonic diseases.
a = Dose, at which an average of 50% of the mice fall from a rotating rod.

mouse [4] = experiment: Prolongation of sleep induced by hexobarbital, mouse; format: in vivo; conditions: ip, read-out: % prolongation of sleep induced by hexobarbital by 15 mg/kg i.p.
Procedure: d = Percent prolongation of the duration of sleep of mice, which were administered 75 mg/kg hexobarbital, compared with the sleep duration of controls.

mouse [5] = experiment: Inhibition of the motility in the tread wheel, mouse; format: in vivo; conditions: for inhibition in vivo at 25 mg/kg: ip, 3 h, read-out: % Inhibition of the motility in the tread wheel by 25 mg/kg i.p.
[6] = tested on: blood pressure of the narcotized rat; experiment: Lowering of the blood pressure, narcotized rat; format: in vivo; set-up: unit not given here; conditions: 30% lowering
[7] = tested on: blood pressure increasing effect of adrenaline; experiment: Inhibition of the pressor effect of adrenaline, despinalized rat; format: in vivo; conditions: iv, 0.001 mg/kg i.v. adrenaline, read-out: 50% inhibition of the press. effect after i.v. administration of adrenaline with
in vivo = conditions: mouse
[8] = tested on: histamine spasm of the isolated small intestine of the guinea pig; experiment: Antihistamine effect, histamine spasm of isolated small intestine
[9] = tested on: blood pressure of the narcotized cat; experiment: Lowering of the blood pressure, narcotized cat; format: in vivo; conditions: Felis catus, iv; for ED30: 30% lowering; for ED50: 50% lowering
[10] = tested on: carotid sinus relaxation reflex of the narcotized cat; experiment: Inhibition of the carotid sinus reflex, narcotized cat; format: in vivo; conditions: Felis catus, iv; for ED30: 30% inhibition; for ED50: 50% inhibition
[11] = tested on: blood pressure increasing effect of noradrenaline; experiment: Inhibition of the pressor effect of noradrenaline, despinalized rat; format: in vivo; conditions: iv, 0.001 mg/kg i.v. noradrenaline, read-out: 50% inhibition of the press. effect after i.v. administration of noradrenaline with
Hygroscopicity = format: physicochemical; conditions: solid product
[12] = Mus musculus, po, read-out: SD50
[13] = mouse, oral, dose at which 50% show inhibition of spontaneous motility, sedation, muscle relaxation, loss of gripping, read-out: SD50 (the source's name)
[14] = mouse, i.p., dose at which an average of 50% of the mice fall from a rotating rod
[15] = mouse, 15 mg/kg i.p., 75 mg/kg hexobarbital, vs controls
[16] = mouse, 25 mg/kg i.p., 5 mg/kg d-amphetamine-sulfate, 180 minutes
[17] = mouse, 5 mg/kg d-amphetamine-sulfate, 180 minutes

SMILES	ED25 (mouse [1]) [mg/kg]	ED50 (mouse [2]; [13]) [mg/kg]	lowering of the blood pressure by 30% by [6]	ED50 (mouse [3]; [14]) [mg/kg]	change in vivo at 15 mg/kg (mouse [4]; [15]) [%]	ED50 [7] [mg/kg]	LD50 (in vivo) [mg/kg]	ED50 [11] [mg/kg]	further results
Cc1c(N(C)C)c(=O)n(-c2ccccc2)n1C [Aminophenazone, reference compound]	140								
CNC1=Nc2ccc(Cl)cc2C(c2ccccc2)=[N+]([O-])C1 [Chlordiazepoxyde, reference compound]									ED50 (mouse [2]; [12]): 8 mg/kg; ED50 (mouse [3]; Mus musculus): 38 mg/kg; change in vivo at 15 mg/kg (mouse [4]; Mus musculus): 324%; inhibition in vivo at 25 mg/kg (mouse [5]; Mus musculus): 30%
Cc1ccc(N2CCN(CCCNc3cc(=O)n(C)c(=O)n3C)CC2)cc1 [Example 1, 1,3-Dimethyl-4-(γ-[4-(p-tolyl)-piperazinyl-(1) ]-propylamino)-uracil]	5	40	2.9	28	110	1.45	200		inhibition in vivo at 25 mg/kg (mouse [5]; [16]): 36%
COc1ccc(OC)c(N2CCN(CCCNc3cc(=O)n(C)c(=O)n3C)CC2)c1 [Example 3, 1,3-Dimethyl-4-(γ-[4-(2,5-dimethoxyphenyl)-piperazinyl-(1)]-propylamino)-uracil]	7		1.4			2.1	430		
CCOc1ccccc1N1CCN(CCCNc2cc(=O)n(C)c(=O)n2C)CC1 [Example 5, 1,3-Dimethyl-4-(γ[4-(o-ethoxyphenyl)-piperazinyl-(1)]-propylamino)-uracil]	9	98	0.36	26	126	0.24	250		inhibition in vivo at 25 mg/kg (mouse [5]; [16]): 46%
COc1cccc(N2CCN(CCCNc3cc(=O)n(C)c(=O)n3C)CC2)c1 [Example 7, 1,3-Dimethyl-4-(γ-[4-(m-methoxyphenyl)-piperazinyl-(1)]-propylamino)-uracil]									50% inhibition of the histamine spasm of the isolated small intestine of the guinea pig [8]: 2e-08 g/mL
COc1ccccc1N1CCN(CCCOc2cc(=O)n(C)c(=O)n2C)CC1 [Example 9, 1,3-Dimethyl-4-(γ-[4-(o-methoxyphenyl)-piperazinyl-(1)]-propyloxy)-uracil]	10	30	> 3.4	12	140	0.15	400		ED30 [9]: 0.03 mg/kg; ED50 [9]: 0.14 mg/kg; ED30 [10]: 0.17 mg/kg; ED50 [10]: 0.26 mg/kg; inhibition in vivo at 25 mg/kg (mouse [5]; [16]): 79%
Cn1c(NCCCN2CCN(c3ccccc3)CC2)cc(=O)n(C)c1=O [Example 11, 1,3-Dimethyl-4-(γ-[4-phenyl-piperazinyl-(1)]-propylamino)-uracil]		70	0.48	11	130	1	120	> 2.5	% Inhibition of the motility in the tread wheel by 12 mg/kg i.p. (mouse [5]; [17]): 22%
Cc1ccccc1N1CCN(CCCNc2cc(=O)n(C)c(=O)n2C)CC1 [Example 12, 1,3-Dimethyl-4-(γ-[4-(o-tolyl)-piperazinyl(1)]-propylamino)-uracil]	6.5	87	1.0	26	49	0.45	70	2.5	ED30 [9]: 0.41 mg/kg; ED50 [9]: 2.4 mg/kg; 50% inhibition of the histamine spasm of the isolated small intestine of the guinea pig [8]: 3e-08 g/mL; % Inhibition of the motility in the tread wheel by 12 mg/kg i.p. (mouse [5]; [17]): 42%
Cn1c(NCCCN2CCN(c3ccc(Cl)cc3)CC2)cc(=O)n(C)c1=O [Example 13, 1,3-Dimethyl-4-(γ-[4-(p-chlorophenyl)-piperazinyl-(1)]-propylamino)-uracil]			> 3.4			> 2.5	70		50% inhibition of the histamine spasm of the isolated small intestine of the guinea pig [8]: 1e-08 g/mL
COc1ccccc1N1CCN(CCCNc2c(C)c(=O)n(C)c(=O)n2C)CC1 [Example 14, 1,3,5-Trimethyl-4-(γ-[4-(o-methoxyphenyl)-piperazinyl-(1)]-propylamino)-uracil]		90	0.13	12	152	0.045	140	1.2	inhibition in vivo at 25 mg/kg (mouse [5]; [16]): 21%
CCCCc1c(NCCCN2CCN(c3ccccc3OC)CC2)n(C)c(=O)n(C)c1=O [Example 15, 1,3-Dimethyl-4-(γ-[4-(o-methoxyphenyl)-piperazinyl-(1)]-propylamino)-5-n-butyl-uracil]			0.36			0.028	130	2.8	
COc1ccccc1N1CCN(CCCNc2c([N+](=O)[O-])c(=O)n(C)c(=O)n2C)CC1 [Example 16, 1,3-dimethyl-4-(γ-[4-(o-methoxyphenyl)-piperazinyl-(1)]-propylamino)-5-nitro-uracil]	10		1.6			0.17	600		ED30 [9]: 0.21 mg/kg; ED50 [9]: 1 mg/kg; ED30 [10]: 0.6 mg/kg; ED50 [10]: 2 mg/kg
COc1ccccc1N1CCN(C(C)CNc2cc(=O)n(C)c(=O)n2C)CC1 (stereo not drawn) [Example 17, 1,3-Dimethyl-4-(β-[4-(o-methoxyphenyl)-piperazinyl-(1)]-propylamino)-uracil]			3.0			0.16	220	2.3	
COc1ccccc1N1CCN(CCCNc2c(Br)c(=O)n(C)c(=O)n2C)CC1 [Example 18, 1,3-Dimethyl-4-(γ-[4-(o-methoxyphenyl)-piperazinyl-(1)]-propylamino)-5-bromo-uracil-dihydrobomide]									ED30 [9]: 0.15 mg/kg; ED50 [9]: > 0.5 mg/kg; ED30 [10]: 0.13 mg/kg; ED50 [10]: 1.1 mg/kg
COc1ccccc1N1CCN(CCCNc2c(N=O)c(=O)n(C)c(=O)n2C)CC1 [Example 19, 1,3-Dimethyl-4-(γ-[4-(o-methoxyphenyl)-piperazinyl-(1)]-propylamino)-5-nitroso-uracil]									hygroscopicity (Hygroscopicity): hygroscopic
COc1ccccc1N1CCN(CCCNc2c(N)c(=O)n(C)c(=O)n2C)CC1 [Example 20, 1,3-Dimethyl-4-(γ-[4-(o-methoxyphenyl)-piperazinyl-(1)]-propylamino)-5-amino-uracil]		80	0.11	34	62	0.045	500	1.6	ED30 [9]: 0.05 mg/kg; ED50 [9]: 0.15 mg/kg; ED30 [10]: 0.06 mg/kg; ED50 [10]: 0.15 mg/kg; inhibition in vivo at 25 mg/kg (mouse [5]; [16]): 42%
Cc1ccccc1N1CCN(CCCNc2c(N=O)c(=O)n(C)c(=O)n2C)CC1 [Example 61, 1,3-Dimethyl-4-([4-(o-tolyl)-piperazinyl-(1)]-propyl-amino)-5-nitroso-uraci]			0.5			0.39	600	3.7	
CCCC(C)(COC(N)=O)COC(N)=O [Meprobamate, reference compound]									ED50 (mouse [2]; [12]): 300 mg/kg; ED50 (mouse [3]; Mus musculus): 95 mg/kg; change in vivo at 15 mg/kg (mouse [4]; Mus musculus): 18%; inhibition in vivo at 25 mg/kg (mouse [5]; Mus musculus): 28%
CN1CCC(OC(c2ccccc2)c2ccccc2)CC1 [Piprinhydrinate, reference compound]									50% inhibition of the histamine spasm of the isolated small intestine of the guinea pig [8]: 1.5e-08 g/mL

Source: patent US4067982A, “Aryl-substituted piperazinyl-alkylamino-uracils, -uracil ethers and -uracil thioethers as therapeutics” (priority 1976, dated 1978)
